# Test system: PC3 (prostate); KB (nasopharyngeal); MDA MB 231 (breast)
# Test: In vitro cell culture assay (MTT), cell inhibition in three human tumor cell lines
# Details: 72 hours
smiles,measurement,value
CC(=O)O[C@H]1C(=O)[C@@]2(C)[C@H]([C@H](OC(=O)c3ccccc3)[C@]3(O)C[C@H](OC(=O)[C@H](O)[C@@H](NC(=O)c4ccccc4)c4ccccc4)C(C)=C1C3(C)C)[C@]1(OC(C)=O)CO[C@@H]1C[C@@H]2O [paclitaxel],cell inhibition at lower concentrations,more pronounced
